Results on 1 compound are retold here after US20250108064A1, “PHOSPHATE PRODRUGS OF CANNABINOIDS” (priority 2021, published 2025).

Structures are written as SMILES.

What all share (assay type): in vitro ADME
The nature of series [1]: Simulated Gastric Fluid stability assay. The conditions noted are these: simulated gastric fluid (SGF) with pepsin, pH 1.2; SGF pH about 1.2 with pepsin, 37° C.; read-out: T½ in SGF (converted). As to the method: General Experimental: Simulated Gastric Fluid (SGF) is a pH 1.2 HCl solution with purified pepsin (800-2500 units of activity) (Test Solutions, The United States Pharmacopoeia (USP), 2008). SGF was prepared according to a procedure described in Test Solution—USP and other published articles (Bioorganic Chemistry, 49 (2013), 40-48). Sodium chloride 0.20 g and purified pepsin 0.32 g (Sigma), derived from porcine stomach mucosa with an activity of 800 to 2500 units per mg of protein, were dissolved in 0.70 mL hydrochloric acid and sufficient water to make 100 mL. […] The SGF solution prepared was used for in vitro studies to evaluate the prodrug stability.
At specified time intervals, aliquots (100 μL) were withdrawn and added to pre-cooled 100% acetonitrile (200 μL spiked with ISTD) and mixed well by vortex mixing for 2 min. The mixture was centrifuged at 13000 rpm for 15 min at 4° C.

Series [2] is described as follows: Liver microsome stability assay (HLM). The conditions noted are these: human, microsomes, pH 7.4; 3 μM test compound, NADPH; read-out: T½ in HLM. An outline of the steps: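 Compound (3 μM) incubated with human or mouse liver microsomes in 100 mM phosphate pH 7.4, started with NADPH; minus-NADPH controls included. Samples taken at 0, 5, 10, 15 and 30 min, quenched in cold methanol and analysed by LC-MS/MS. T1/2 = 0.693/k from ln % remaining vs time.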
In general terms: Liver microsomes are a subcellular fraction often used to study metabolism.

Series [3] can be described thus: Liver microsome stability assay (MLM). The conditions noted are these: mouse, mouse liver microsomes, pH 7.4; 3 μM test compound, NADPH; read-out: T 1/2 in MLM. As to the method: General Experimental: Human and mouse liver microsomes were purchased from Xenotech at 20 mg/mL. NADPH (Sigma-Aldrich) 10 mM stocks were prepared in deionized water.
Procedure for Liver Microsome Stability Assay: Test compounds and positive controls were dissolved in 100% DMSO to make 10 mM stock solutions. Verapamil (Sigma-Aldrich) and diphenhydramine (Sigma-Aldrich) were used as positive controls for both human liver microsomes (HLM) and mouse liver microsomes (MLM). The 10 mM stock solutions of test and control compounds were further diluted in potassium phosphate buffer (100 mM, pH 7.4) to 500 μM to ensure that the organic solvent content was <0.2%. The liver microsome (HLM or MLM) assay was prepared in a 1.5 mL Eppendorf tube with a final volume of 1100 μL for duplicate runs. Each reaction contained phosphate buffer (928.4 μL), liver microsomes (55 μL), and test compound (6.6 μL of 500 μM), resulting in a final concentration of 3 μM for the test compound. The reaction was initiated with 110 μL of 10 mM NADPH. Aliquots (100 μL) were removed in duplicate at 0, 5, 10, 15, and 30 min and quenched in […] of 100% cold methanol which contained internal standard (ISTD: d5-7-ethoxy coumarin 2 μM). The aliquots were centrifuged at 12,000 g for 5 min, and the supernatant was transferred and placed in an LC-MS vial. Each time point was assessed by LC-MS/MS, and the area under the m/z curve (AUC), based on the MRM transition, was integrated w.r.t the ISTD. Positive controls were conducted at a final volume of 550 μL to enable a single run for each time point. Negative controls in the absence of NADPH were performed with the test and control compounds, respectively, at a final volume of 150 μL and measured at the most prolonged time point. Control compounds were processed and analyzed like test compounds. […] Half-life (T1/2) was calculated using the data obtained from LC-MS/MS and by plotting ln (% remaining of the parent prodrug) versus time and performing linear regression to determine slope. […]

Series [4] in a line: Plasma stability (mouse plasma). The conditions noted are these: read-out: T½ in mouse plasma (converted).
Series [5] in a line: Brain homogenate stability assay. The following applies: mouse brain homogenate, 37° C. The source says:
General Experimental: Purchases were made for DPBS (1X) (Gibco) and Pierce BCA Assay kit for protein quantification (Thermo Fischer). Frozen mouse brain homogenate was provided by Dr. Scott Myers at Emory University School of Medicine (C57BL/6J adult male mice (Jackson Laboratory), 239 days (34 weeks) old). Briefly, each mouse was euthanized via isoflurane overdose and immediately upon cessation of breathing the chest cavity was opened and the left ventricle punctured with a 21G needle, the vena cava was then clipped and the body perfused with cold PBS (pH 7.35) for 2 min. Following, the brain was removed (on ice) and the forebrain separated from the cerebellum. The forebrain wet weight was recorded and placed into 3 mL ice cold HBSS (Hank's Balanced Salt Solution, pH 7.4), and then homogenized for 10 secs at 3/4 max setting. […] The amount of protein in the mouse brain homogenate was quantified using the Pierce BCA assay kit before running the stability assay.
Procedure for Brain Homogenate Stability Assay: 10 mM stock solution was prepared in 100% DMSO for each test compound. […] The supernatant was transferred into the HPLC vials, and measured by LC-MS/MS. Half-life (T1/2) was calculated using the data obtained from LC-MS/MS and by plotting ln (% remaining of the parent prodrug) versus time and performing linear regression to determine slope. […]

Take `C=C(C)[C@@H]1CCC(C)=C[C@H]1c1c(O)cc(CCCCC)cc1OC(=O)C1(OP(=O)(O)O)CC1.N.N` [7b, 1-((((1′R,2′R)-6-hydroxy-5′-methyl-4-pentyl-2′-(prop-1-en-2-yl)-1′,2′,3′,4′-tetrahydro-[1,1′-biphenyl]-2-yl)oxy)carbonyl)cyclopropyl phosphate di-ammonium salt]: the half-life at 2 mM in series [1] was more than 3 h. Besides, the half-life in series [2] is 2.62 h; in series [4], 3.7 h. Also, the half-life at 3 μM in series [3] was 0.55 h. For the same compound, the “brain homogenate stability (metabolism and metabolite formation)” value in series [5] is “metabolism of compound 7b and formation of CBD”.
